Data taken from publication PMC12040169 (PLOS Biology, 2025).

Test: in vitro
Details: human, hela cells, % viability

SMILES | viability at 28.5 h, 10 µM [%]
CC1CN(Cc2nc3c(c(=O)n(C)c(=O)n3C)n2CCCO)CC(C)O1 (stereo not drawn) [CBK269298] | 99
Cc1csc2ncc(C(=O)Nc3ccccc3C#N)c(=O)n12 [CBK287458] | 95.3
Cc1ccc(SCCNCCN2CCOCC2)cc1 [CBK268581G] | 104
O=C(CC1Nc2cccc3cccc(c23)NC1=O)Nc1ccccc1 (stereo not drawn) [CBK268035] | 87.2
Cc1nnnn1-c1ccc(CC(=O)N2CCc3sccc3C2c2ccco2)cc1 (stereo not drawn) [CBK285705] | 88.2
CCc1ccccc1S(=O)(=O)N1CCOC(c2cnn(CC)c2)C1 (stereo not drawn) [CBK305421] | 94.8
CCn1cncc1CN1CCC(O)(c2ccccc2F)CC1 [CBK282817] | 112
COc1ccccc1-c1cc2nc(C)cc(Nc3ccccc3)n2n1 [CBK287806] | 97.3
COc1ccccc1-c1ccc(C(=O)N(C)CCN(C)C)c(NCC2CC2)n1 [CBK106269] | 96.3
Cc1cc(NC(=O)CN2CCN(Cc3ccccc3C#N)CC2)no1 [CBK305644] | 77.3
Cc1cc(-c2cn3ccnc3c(NC3CC3)n2)cc(C)c1O [CBK066747] | 86.5
Cc1ccc(C(=O)C2=C(O)C(=O)N(CCCN3CCOCC3)C2c2ccccn2)o1 (stereo not drawn) [CBK269187] | 89.7
C=CCn1c(C)c(CN2CCc3c(nc(C)[nH]c3=O)C2)c2ccccc21 [CBK283990] | 88.6
CN1CCCc2ccc(S(=O)(=O)NCCc3cn4ccccc4n3)cc21 [CBK306170] | 82.8
O=S(=O)(NCc1nc(-c2ccccc2)no1)c1ccc(F)cc1 [CBK268198] | 93.3
CCN(Cc1ccncc1)C(=O)NCCCN1CCN(C)CC1 [CBK155123] | 108
O=C(c1cccnc1)C1CCN(C(=O)Cc2ccsc2)CC1 [CBK283517] | 90.7
O=C(CC1CC1)N1CCC2(CCN(Cc3ccccc3)C2)C1 (stereo not drawn) [CBK136825] | 93.9
Cc1cc2c(o1)CCc1sc(N(C)C(=O)C3CC(=O)N(C)C3)nc1-2 (stereo not drawn) [CBK283980] | 75.6
CC(=O)Nc1ccc(Nc2ncnc3scc(-c4ccccc4)c23)cc1 [CBK264930] | 93.6
O=C(O)CCCC(=O)N(c1ccccc1)c1ccccc1 [CBK286901] | 80.2
COCCNC(=O)c1cc(-c2cccc(C(=O)N(C)C)c2)cnc1N1CCOCC1 [CBK076464] | 97.7
Cc1cc(N2C[C@H](CO)OC2=O)ccc1C#N [CBK017978] | 116

SMILES | viability at 28.5 h, 10 µM [%]
Cc1ccnc(NCn2nnc3ccccc32)c1 [CBK261116] | 110
NC(=O)c1c(NC(=O)NCc2cccnc2)sc2c1CCC2 [CBK307578] | 70.3
CC(NC(=O)CCC1CCCC1)c1nc(-c2ccncc2)cs1 (stereo not drawn) [CBK305819] | 86.9
Cc1cc(Cl)ccc1NC(=O)CCC(=O)N/N=C/c1cccnc1 [CBK261945] | 100
Cc1cccc(NC(=S)N/N=C/c2sccc2C)c1 [CBK022228] | 104
Cc1cc(Cl)c(OCCn2c3ccccc3c3ccccc32)c(Br)c1 [CBK264826] | 92.2
Cn1c(=O)[nH]c2c(nc(-c3ccccc3)n2C)c1=O [CBK287855] | 78.2
O=C1CCCN1CCCNc1nccnc1-c1cccnc1 [CBK089246] | 110
COc1ccccc1-c1cnccc1-n1ccnc1 [CBK177153] | 100
COc1cc(CN2CCCN(C)CC2)c([N+](=O)[O-])cc1OC [CBK261539] | 90.2
CCN(CC)S(=O)(=O)c1ccc(C)c(NS(=O)(=O)c2cc(C(=O)O)n(C)c2)c1 [CBK297782] | 99.5
CC(=O)N[C@H]1[C@H](Oc2ccc3ccccc3c2)O[C@@H]2COC(C)(C)O[C@H]2[C@@H]1O [CBK091644] | 87
O=C(Cc1ccccc1)N1CCN(c2ncccn2)CC1 [CBK144518] | 116
CN1CCC(N2CCN(C(=O)Nc3ccc4c(c3)OCCO4)CC2)CC1 [CBK155898] | 87
COc1ccc2ncc3c(-c4ccccc4)n[nH]c3c2c1 [CBK288052] | 93.3
CC1CCCCC1NC(=O)Cn1c(=O)n(C(C)C)c2ncccc21 (stereo not drawn) [CBK283697] | 88.8
COc1cc2c(cc1OC)C(CCN1CCN(c3ccccc3C)CC1)OCC(C)(C)C2 (stereo not drawn) [CBK024043C] | 98.5
CSc1cccc(NC(=O)Nc2ccc3c(c2)OCCO3)c1 [CBK300527] | 104
COc1cc(/C=N\NC(=O)CSc2nc3ccccc3o2)ccc1O [CBK263630] | 86.5
Cc1nc(-c2cccnc2)[nH]c(=O)c1CC(=O)N(C)CC1CCCCC1 [CBK305785] | 91.4
O=C(CC1CC1)Nc1snnc1-c1ccc(Cl)cc1 [CBK153239] | 97
Cc1ccccc1C(=O)NCC(=O)Nc1ccc2cc(Br)cnc2n1 [CBK063312] | 96.5
